Reference: patent US20080233179A1, “TRANSDERMAL COMPOSITION HAVING ENHANCED COLOR STABILITY” (priority 2006, published 2008)
Where a name gives a salt, the structure may show the parent alone.

Assays:
[1] = levodopa taken alone; cited from earlier work
D3 receptors = D3 receptors (Homo sapiens, UniProt P35462); conditions: cited from earlier work
[2] = tested on: D2 subfamily of dopamine receptors; conditions: in vitro; cited from earlier work
[3] = three times a day, pramipexole dihydrochloride tablets (Wright et al. 1997); cited from earlier work
[4] = Lowest effective concentration of sodium metabisulfite on pramipexole color stability (Example 4); format: physicochemical; conditions: pramipexole hydrochloride 2.00% (FBE) hydro-alcoholic mixture at apparent pH around 8.0
Method: A formulation free of antioxidants served as a blank reference (Formulation F).
In parallel, samples stored at 40° C. in a climatic chamber (C-20/600, Climat Temperatur System, Hechingen, Germany) for 1 month were assessed for color as well. […] The formulation containing the lowest level of sodium metabisulfite (0.10% wt, formulation C) was ranked “BY2”. All the other formulations were colorless.

D3 receptors, sequence (P35462 whole entry): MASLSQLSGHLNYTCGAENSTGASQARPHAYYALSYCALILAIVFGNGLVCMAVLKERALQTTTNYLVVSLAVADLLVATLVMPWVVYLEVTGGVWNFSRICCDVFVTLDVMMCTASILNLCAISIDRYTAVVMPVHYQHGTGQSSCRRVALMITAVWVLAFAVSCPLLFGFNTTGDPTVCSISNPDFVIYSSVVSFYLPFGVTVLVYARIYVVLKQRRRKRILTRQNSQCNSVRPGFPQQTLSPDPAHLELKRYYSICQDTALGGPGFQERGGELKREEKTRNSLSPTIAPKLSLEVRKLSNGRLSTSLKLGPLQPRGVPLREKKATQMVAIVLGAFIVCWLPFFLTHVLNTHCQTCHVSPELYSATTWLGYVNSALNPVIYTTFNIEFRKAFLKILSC

N[C@@H](Cc1ccc(O)c(O)c1)C(=O)O [levodopa]
fraction of the drug broken down into dopamine before it reaches the brain [1]: about 95%

CCCN[C@H]1CCc2nc(N)sc2C1 [pramipexole, (S)-2-amino-4,5,6,7-tetrahydro-6-(propylamino)benzothiazole dihydrochloride monohydrate]
affinity for D3 receptors relative to D2 or D4 receptor subtypes (D3 receptors): higher affinity than to D2 or D4 receptor subtypes
intrinsic activity at the D2 subfamily of dopamine receptors [2]: full intrinsic activity
steady-state pharmacokinetic characteristics [3]: linear up to a daily dose of 4.5 mg

O=S([O-])S(=O)(=O)[O-].[Na+].[Na+] [sodium metabisulfite, Sodium metabisulfite]
minimal amount of sodium metabisulfite preventing color degradation [4]: 0.2 % wt
